In patent US11440923B2, “Substituted macrocyclic indole derivatives” (Bayer Aktiengesellschaft, priority 2017, dated 2022) one finds IC50 data, which are given here for twelve compounds.

For series [1], the system named is SUDHL5 cells. Nature of the series: Antiproliferation assay SUDHL5 (Assay 7). The series is classed as cell-based. A digest of the protocol:
(§1)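 Anti-proliferative effect was measured by CellTiter-Glo ATP luminescence after 72 h compound exposure at 37° C, following overnight plating. IC50s were derived using a parallel time-zero plate and DMSO-treated controls as reference points.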

A further series has as its target BCL-XL (Homo sapiens (Human), UniProt Q07817). Nature of the series: Protein-protein interaction assay BCL-XL/Bad BH3 peptide (BCL-XL assay, TR-FRET). As to conditions: read-out: BCL-XL Assay IC50 (median). The format is binding. An outline of the steps:
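TR-FRET competition: 1 nM His-tagged human BCL-XL (1-212) versus 1 nM biotin-PEG Bad BH3 peptide tracer, buffer 50 mM Tris pH 7, NaCl, KF, DTT. Compound preincubated with protein 10 min at 22 °C; read after 1 h at 22 °C plus overnight at 4 °C. IC50 by 4-parameter regression of normalized ratios.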

The test system of series [2] is SUDHL5 cells. The series can be described thus: Induction of cytotoxicity in SUDHL5 cells (Assay 6). The format is cell-based. The settings on record: 5 h, CellTiter-Glo, read-out: Cytotox SUDHL5 IC50 (median). A digest of the protocol: (§2)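 Run alongside apoptosis measurements, this cytotoxicity readout used cells treated with compound for 5 h at 37 °C and quantified ATP-based luminescence with CellTiter-Glo.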
(In general: Cellular ATP, detected with luciferase, serves as a proxy for viable cell number.)

The test system of the next series is HMC-1-8 cells. Nature of the series: Antiproliferation assay HMC-1-8 (Assay 7). The series is classed as cell-based. A digest of the protocol: as §1
The test system of the next series is SUDHL10 cells. The series can be described thus: Induction of cytotoxicity in SUDHL10 cells (Assay 6). The format is cell-based. The settings on record: 5 h, CellTiter-Glo, read-out: Cytotox SUDHL10 IC50 (median). An outline of the steps: as §2
Setting [3] is: Homo sapiens, SU-DHL-5, 72 h, 72 h, CellTiter-Glo, read-out: Antiproli SUDHL5 IC50 (median).
The mark [4] stands for this setting: 72 h, CellTiter-Glo, read-out: Antiproli HMC-1-8 IC50 median.
Where [5] appears, read: Homo sapiens, SU-DHL-5, 72 h, read-out: Antiproli SUDHL5 IC50 (median), 72 h, CellTiter-Glo.
[6] abbreviates: 72 h, read-out: Antiproli HMC-1-8 IC50 median, 72 h, CellTiter-Glo.
The mark [7] stands for this setting: 72 h, CellTiter-Glo, read-out: Antiproli SUDHL5 IC50 (median).

The structures appear in SMILES notation. Counter-ions that a name gives are not always drawn. Like-named read-outs stand apart in the source and are kept apart here.

Chain of BCL-XL (Q07817 1-212): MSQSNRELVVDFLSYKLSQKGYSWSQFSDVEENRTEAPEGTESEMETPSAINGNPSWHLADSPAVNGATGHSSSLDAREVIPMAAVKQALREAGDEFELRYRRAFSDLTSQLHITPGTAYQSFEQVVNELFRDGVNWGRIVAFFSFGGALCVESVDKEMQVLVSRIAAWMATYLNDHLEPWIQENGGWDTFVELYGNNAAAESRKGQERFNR

The term IC50 denotes the concentration at which inhibition is half-maximal. Take `CCc1c2c(nn1C)C(CCO)OCCCCn1c(C(=O)O)c(CCCOc3cccc4cc(F)ccc34)c3ccc(Cl)c-2c31` (racemic) [Example 44, (rac)-4-chloro-3-ethyl-7-{3-[(6-fluoronaphthalen-1-yl)oxy]propyl}-(15-rac)-(2-hydroxyethyl)-2-methyl-2,10,11,12,13,15-hexahydropyrazolo[4′,3′:9,10][1,6]oxazacycloundecino[8,7,6-hi]indole-8-carboxylic Acid]: the IC50 worked out at 140 nM with SUDHL5 cells [1] (setting [3]); 12500 nM at BCL-XL; 140 nM with SUDHL5 cells [2] (Homo sapiens, SU-DHL-5, 5 h); 2630 nM with HMC-1-8 cells (setting [4]); 200 nM with SUDHL10 cells (Homo sapiens, SU-DHL10, 5 h).

Turning to `CCc1c2c(nn1C)C(CCN1CCOCC1)OCCCCn1c(C(=O)O)c(CCCOc3cccc4cc(F)ccc34)c3ccc(F)c-2c31` (racemic) [Example 49, (rac)-3-Ethyl-4-fluoro-7-{3-[(6-fluoronaphthalen-1-yl)oxy]propyl}-2-methyl-(15-rac)-[2-(morpholin-4-yl)ethyl]-2,10,11,12,13,15-hexahydropyrazolo[4′,3′:9,10][1,6]oxazacycloundecino[8,7,6-hi]indole-8-carboxylic Acid], the IC50 is 42 nM in the series with SUDHL5 cells [1] (setting [3]); greater than 20000 nM on BCL-XL; 34 nM in the series with SUDHL5 cells [2] (Homo sapiens, SU-DHL-5, 5 h); 1060 nM in the series with HMC-1-8 cells (setting [4]); 33 nM with SUDHL10 cells (Homo sapiens, SU-DHL10, 5 h).

For `CCc1c2c(nn1C)C(C1CC1)OCCCCn1c(C(=O)O)c(CCCOc3cccc4cc(F)ccc34)c3ccc(Cl)c-2c31` (single isomer, unassigned; enantiomer 1) [Example 39, (+)-4-chloro-15-cyclopropyl-3-ethyl-7-{3-[(6-fluoronaphthalen-1-yl)oxy]propyl}-2-methyl-2,10,11,12,13,15-hexahydropyrazolo[4′,3′:9,10][1,6]oxazacycloundecino[8,7,6-hi]indole-8-carboxylic Acid—N-ethylethanamine Salt (Enantiomer 1)], the IC50 was 880 nM with SUDHL5 cells [1] (setting [5]); 18100 nM on BCL-XL; 1000 nM with SUDHL5 cells [2]; 12300 nM in the series with HMC-1-8 cells (setting [6]); 1400 nM with SUDHL10 cells.

With `CCc1c2c(nn1C)C(CCC(C)(C)O)OCCCCn1c(C(=O)O)c(CCCOc3cccc4cc(F)ccc34)c3ccc(Cl)c-2c31` (racemic) [Example 74, (rac)-4-chloro-3-ethyl-7-{3-[(6-fluoronaphthalen-1-yl)oxy]propyl}-(15-rac)-(3-hydroxy-3-methylbutyl)-2-methyl-2,10,11,12,13,15-hexahydropyrazolo[4′,3′:9,10][1,6]oxazacycloundecino[8,7,6-hi]indole-8-carboxylic Acid], the IC50 in the series on SUDHL5 cells [1] (setting [3]) amounted to 67 nM; on BCL-XL, 13300 nM; in the series with SUDHL5 cells [2] (Homo sapiens, SU-DHL-5, 5 h), 51 nM; with HMC-1-8 cells (setting [4]), 397 nM; in the series on SUDHL10 cells (Homo sapiens, SU-DHL10, 5 h), 55 nM.

Turning to `COCCC1OCCCCn2c(C(=O)O)c(CCCOc3cccc4ccccc34)c3ccc(Cl)c(c32)-c2c1nn(C)c2C` (racemic) [Example 37, (rac)-4-chloro-(15-rac)-(2-methoxyethyl)-2,3-dimethyl-7-{3-[(naphthalen-1-yl)oxy]propyl}-2,10,11,12,13,15-hexahydropyrazolo[4′,3′:9,10][1,6]oxazacycloundecino[8,7,6-hi]indole-8-carboxylic Acid], the IC50 stood at 510 nM with SUDHL5 cells [1] (setting [3]); 17100 nM on BCL-XL; 390 nM in the series on SUDHL5 cells [2] (Homo sapiens, SU-DHL-5, 5 h); 7450 nM in the series with HMC-1-8 cells (setting [4]); 360 nM in the series on SUDHL10 cells (Homo sapiens, SU-DHL10, 5 h).

Regarding `Cc1c2c(nn1C)C(CCO)OCCCCn1c(C(=O)O)c(CCCOc3cccc4ccccc34)c3ccc(Cl)c-2c31` (single isomer, unassigned; enantiomer 1) [Example 31, (+)-4-chloro-15-(2-hydroxyethyl)-2,3-dimethyl-7-{3-[(naphthalen-1-yl)oxy]propyl}-2,10,11,12,13,15-hexahydropyrazolo[4′,3′:9,10][1,6]oxazacycloundecino[8,7,6-hi]indole-8-carboxylic Acid (Enantiomer 1)], the IC50 is 240 nM in the series on SUDHL5 cells [1] (setting [7]); greater than 20000 nM on BCL-XL; 370 nM with SUDHL5 cells [2]; 6800 nM in the series on HMC-1-8 cells (72 h, CellTiter-Glo; read-out: Antiproli HMC-1-8 IC50 median); 350 nM in the series with SUDHL10 cells.

As for `CCc1c2c(nn1C)C(c1ccccc1)OCCCCn1c(C(=O)O)c(CCCOc3cccc4cc(F)ccc34)c3ccc(Cl)c-2c31` (racemic) [Example 59, (rac)-4-chloro-3-ethyl-7-{3-[(6-fluoronaphthalen-1-yl)oxy]propyl}-2-methyl-(15-rac)-phenyl-2,10,11,12,13,15-hexahydropyrazolo[4′,3′:9,10][1,6]oxazacycloundecino[8,7,6-hi]indole-8-carboxylic Acid], the IC50 was 5100 nM with SUDHL5 cells [1] (setting [3]); greater than 20000 nM at BCL-XL; 640 nM in the series on SUDHL5 cells [2] (Homo sapiens, SU-DHL-5, 5 h); 3410 nM in the series with HMC-1-8 cells (setting [4]); 1000 nM with SUDHL10 cells (Homo sapiens, SU-DHL10, 5 h).

For the compound `Cc1c2c(nn1C)C(C1CC1)OCCCCn1c(C(=O)O)c(CCCOc3cccc4ccccc34)c3ccc(Cl)c-2c31` (single isomer, unassigned; enantiomer 1) [Example 35, (+)-4-chloro-15-cyclopropyl-2,3-dimethyl-7-{3-[(naphthalen-1-yl)oxy]propyl}-2,10,11,12,13,15-hexahydropyrazolo[4′,3′:9,10][1,6]oxazacycloundecino[8,7,6-hi]indole-8-carboxylic Acid N-ethylethanamine Salt (Enantiomer 1)], the half-inhibitory concentration (IC50) was 2700 nM in the series on SUDHL5 cells [1] (setting [5]); greater than 20000 nM on BCL-XL; 2000 nM in the series on SUDHL5 cells [2]; 19700 nM in the series with HMC-1-8 cells (setting [6]); 6700 nM with SUDHL10 cells.

With `Cc1c2c(nn1C)C(C1CC1)OCCCCn1c(C(=O)O)c(CCCOc3cccc4ccccc34)c3ccc(Cl)c-2c31` (racemic) [Example 28, (rac)-4-Chloro-15-cyclopropyl-2,3-dimethyl-7-{3-[(naphthalen-1-yl)oxy]propyl}-2,10,11,12,13,15-hexahydropyrazolo[4′,3′:9,10][1,6]oxazacycloundecino[8,7,6-hi]indole-8-carboxylic Acid], the IC50 in the series with SUDHL5 cells [1] (setting [3]) is 2700 nM; on BCL-XL, 19800 nM; in the series on SUDHL5 cells [2] (Homo sapiens, SU-DHL-5, 5 h) it was 3000 nM; with HMC-1-8 cells (setting [4]), 20800 nM; with SUDHL10 cells (Homo sapiens, SU-DHL10, 5 h) it was 8400 nM.

Turning to `Cc1c2c(nn1C)C(CCN1CCOCC1)OCCCCn1c(C(=O)O)c(CCCOc3cccc4cc(F)ccc34)c3ccc(F)c-2c31` (single isomer, unassigned; enantiomer 1) [Example 20, 4-fluoro-7-{3-[(6-fluoronaphthalen-1-yl)oxy]propyl}-2,3-dimethyl-15-[2-(morpholin-4-yl)ethyl]-2,10,11,12,13,15-hexahydropyrazolo[4′,3′:9,10][1,6]oxazacycloundecino[8,7,6-hi]indole-8-carboxylic Acid—N-ethylethanamine (Enantiomer 1)], the IC50 is 20 nM in the series with SUDHL5 cells [1] (setting [5]); greater than 20000 nM on BCL-XL; 33 nM with SUDHL5 cells [2] (Homo sapiens, SU-DHL-5, 5 h); 460 nM in the series on HMC-1-8 cells (setting [6]); 41 nM in the series with SUDHL10 cells (Homo sapiens, SU-DHL10, 5 h).

Consider `CCc1c2c(nn1C)C(CCOC)OCCCCn1c(C(=O)O)c(CCCOc3cccc4cc(F)ccc34)c3ccc(Cl)c-2c31` (single isomer, unassigned; enantiomer 1) [Example 42, (+)-4-chloro-3-ethyl-7-{3-[(6-fluoronaphthalen-1-yl)oxy]propyl}-15-(2-methoxyethyl)-2-methyl-2,10,11,12,13,15-hexahydropyrazolo[4′,3′:9,10][1,6]oxazacycloundecino[8,7,6-hi]indole-8-carboxylic Acid—N-ethylethanamine Salt (Enantiomer 1)], for which the IC50 with SUDHL5 cells [1] (setting [5]) came out at 52 nM; on BCL-XL it was 15000 nM; in the series with SUDHL5 cells [2] it was 55 nM; in the series with HMC-1-8 cells (read-out: Antiproli HMC-1-8 IC50 median; 72 h, CellTiter-Glo) it was 1080 nM; with SUDHL10 cells, 66 nM.

For `Cc1c2c(nn1C)C(CCN1CCOCC1)OCCCCn1c(C(=O)O)c(CCCOc3cccc4ccccc34)c3ccc(Cl)c-2c31` (single isomer, unassigned; enantiomer 1) [Example 14, 4-chloro-2,3-dimethyl-15-[2-(morpholin-4-yl)ethyl]-7-{3-[(naphthalen-1-yl)oxy]propyl}-2,10,11,12,13,15-hexahydropyrazolo[4′,3′:9,10][1,6]oxazacycloundecino[8,7,6-hi]indole-8-carboxylic Acid (Enantiomer 1)], the IC50 in the series with SUDHL5 cells [1] (setting [7]) was 28 nM; on BCL-XL, greater than 20000 nM; in the series on SUDHL5 cells [2], 23 nM; in the series with HMC-1-8 cells (setting [4]), 381 nM; in the series with SUDHL10 cells, 34 nM.
